# Measurements taken from patent US8609682B2 (priority 2008, dated 2013).
# Experiments:
# [1] = molecular target: T1, mu/kappa opioid heterodimers (Mus musculus, UniProt P33534+P42866); type: cell-based, murine
# T1 construct: expressed in transfected cells
# [2] = molecular target: T2, mu opioid receptor (Mus musculus, UniProt P42866); test: Ca2+ release, HEK-293 mu cells; type: cell-based, murine
# T2 construct: expressed in transfected cells
# [3] = molecular target: mu/delta opioid receptors (Mus musculus, UniProt P32300+P42866); settings: Mu/delta cells
# mu/delta opioid receptors, sequence (P32300 whole entry): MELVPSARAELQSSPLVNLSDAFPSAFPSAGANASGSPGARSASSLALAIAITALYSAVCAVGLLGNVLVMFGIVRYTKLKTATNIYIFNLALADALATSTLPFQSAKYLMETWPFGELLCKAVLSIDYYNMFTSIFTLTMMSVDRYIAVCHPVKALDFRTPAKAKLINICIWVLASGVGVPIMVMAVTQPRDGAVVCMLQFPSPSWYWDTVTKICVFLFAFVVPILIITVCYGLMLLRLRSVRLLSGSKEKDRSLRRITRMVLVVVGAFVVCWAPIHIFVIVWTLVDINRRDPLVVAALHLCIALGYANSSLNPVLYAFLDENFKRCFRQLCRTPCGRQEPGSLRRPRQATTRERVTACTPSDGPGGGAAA
# mu/delta opioid receptors, sequence (P42866 whole entry): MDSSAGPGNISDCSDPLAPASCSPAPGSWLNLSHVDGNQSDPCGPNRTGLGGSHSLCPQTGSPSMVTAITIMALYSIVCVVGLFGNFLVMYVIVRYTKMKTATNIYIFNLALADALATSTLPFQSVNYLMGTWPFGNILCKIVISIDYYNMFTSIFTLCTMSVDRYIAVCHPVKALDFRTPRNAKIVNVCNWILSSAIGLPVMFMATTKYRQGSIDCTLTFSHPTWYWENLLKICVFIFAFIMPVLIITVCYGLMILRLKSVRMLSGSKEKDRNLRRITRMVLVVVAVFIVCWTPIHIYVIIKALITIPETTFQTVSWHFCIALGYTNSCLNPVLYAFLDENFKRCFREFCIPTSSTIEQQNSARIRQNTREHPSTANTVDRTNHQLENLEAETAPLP
# [4] = test system: mice; test: Radiant heat tail flick antinociception; type: in vivo, mouse
# [5] = test system: mice; settings: i.c.v. morphine-infused mice; cited from earlier work
# [6] = test system: mice; settings: chronic i.c.v. morphine; cited from earlier work
# [7] = test system: mice; test: Conditioned place preference (CPP)
# [8] = molecular target: kappa/delta opioid receptors (Mus musculus, UniProt P32300+P33534)
# kappa/delta opioid receptors, sequence (P33534 whole entry): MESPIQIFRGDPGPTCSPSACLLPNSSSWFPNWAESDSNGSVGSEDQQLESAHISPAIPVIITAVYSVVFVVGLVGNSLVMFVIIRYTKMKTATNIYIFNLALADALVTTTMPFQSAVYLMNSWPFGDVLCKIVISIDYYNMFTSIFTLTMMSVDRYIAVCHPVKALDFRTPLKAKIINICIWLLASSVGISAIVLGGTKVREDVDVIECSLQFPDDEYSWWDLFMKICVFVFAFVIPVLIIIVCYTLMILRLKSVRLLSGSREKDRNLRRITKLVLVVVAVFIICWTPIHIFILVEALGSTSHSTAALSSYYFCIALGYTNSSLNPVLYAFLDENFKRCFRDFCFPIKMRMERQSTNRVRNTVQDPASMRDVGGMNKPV
# kappa/delta opioid receptors, sequence (P32300 whole entry): as the sequence (P32300 whole entry) above
# [9] = molecular target: delta opioid receptor (Mus musculus, UniProt P32300); settings: Delta cells
# delta opioid receptor, sequence (P32300 whole entry): as above
# T2 sequence (P42866 whole entry): as the sequence (P42866 whole entry) above
# T1 sequence (P42866 whole entry): as above
# T1 sequence (P33534 whole entry): as the sequence (P33534 whole entry) above
compound,measurement,setting,value
"C[C@@H](NC(=O)[C@@H](N)Cc1ccc(O)cc1)C(=O)NCC(=O)N(C)[C@@H](Cc1ccccc1)C(=O)NCCO [DAMGO, reference compound]","AUCpeak (RFU X seconds), Ca2+ release",[1],5562 ± 668
same,"AUCpeak (RFU X seconds), Ca2+ release",[2],9989 ± 702 RFU X seconds
same,"AUCpeak (RFU X seconds), Ca2+ release",[3],12054 ± 1281 RFU X seconds
"Oc1ccc2c3c1O[C@H]1c4[nH]c5ccccc5c4C[C@@]4(O)[C@@H](C2)N(CC2CC2)CC[C@]314 [NTI, naltrindole, reference compound]",peak time of antagonist effect,[4],20 min
"CN1CC[C@]23c4c5ccc(O)c4O[C@H]2[C@@H](O)C=C[C@H]3[C@H]1C5 [morphine, reference compound]",time of peak antinociception,"[4]; i.v., preliminary studies, ICR mice",15 min
same,ED50 (95% CI),"[4]; i.v., tail flick",420 (378-469) nmol
same,"naloxone-induced withdrawal jumping, previous studies",[5],100 jumps in 10 min
same,"development of tolerance, previous studies, same protocol",[6],6 fold
same,place preference,[7]; 1200 nmol/kg,strong place preference
same,place preference with naloxone,[7]; morphine 1200 nmol/kg plus naloxone 300 nmol/kg,can be blocked by naloxone
"Oc1ccc2c3c1O[C@H]1c4[nH]c5c(c4C[C@@]4(O)[C@@H](C2)N(CC2CC2)CC[C@]314)C[C@@]1(O)[C@H]2Cc3ccc(O)c4c3[C@@]1(CCN2CC1CC1)[C@H]5O4 [norBNI, norbinaltorphimine, reference compound]",peak time of antagonist effect,[4],20 min
"Cys2-Tyr3-Orn5-Pen7-amide [CTOP, reference compound]",peak time of antagonist effect,[4],20 min
DPDPE,"AUCpeak (RFU X seconds), Ca2+ release",[8],10153 ± 1479
same,"AUCpeak (RFU X seconds), Ca2+ release",[3],10504 ± 969 RFU X seconds
same,"AUCpeak (RFU X seconds), Ca2+ release",[9],8319 ± 1117 RFU X seconds
